Values of other authors in patent US20180271760A1, “Skin Care Compositions” (priority 2017, published 2018).
In brackets after ≈: the same amount, converted by molar mass.

How the values were obtained:
[1] = in 4 weeks

solubility in glycerol and glycols (glycerol and glycols) | solubility in water (water, solubility is pH dependent) [µg/mL] | SMILES | reduction of TEWL [1] [%]
soluble | 2100 (≈ 11.2 mM) | O=C(O)CCCCCCCC(=O)O [Azelaic acid] | 
 |  | NC(=O)c1cccnc1 [niacinamide] | 24
